Assay results from ChEMBL document CHEMBL4715826, “Selective PPARδ Modulators Improve Mitochondrial Function: Potential Treatment for Duchenne Muscular Dystrophy (DMD)” (ACS Med Chem Lett, 2018).
Active and inactive are the calls of the source. No cut-off for these calls is given here.

Assays:
[1] = Cmax in cynomolgus monkey at 10 mg/kg, po; format: ADME, organism-based, Macaca fascicularis; set-up: route oral, dose 10 mg/kg; conditions: in vivo
[2] = biological target: T1, Peroxisome proliferator-activated receptor delta (Mus musculus) (UniProt P35396); test: Modulator activity at PPARdelta in […] primary myoblasts derived from DMD patient assessed as upregulation of ANGPTL4 gene expression at 0.04 nM measured after 48 hrs; format: tissue-based; conditions: Primary myotube
T1 sequence (whole entry): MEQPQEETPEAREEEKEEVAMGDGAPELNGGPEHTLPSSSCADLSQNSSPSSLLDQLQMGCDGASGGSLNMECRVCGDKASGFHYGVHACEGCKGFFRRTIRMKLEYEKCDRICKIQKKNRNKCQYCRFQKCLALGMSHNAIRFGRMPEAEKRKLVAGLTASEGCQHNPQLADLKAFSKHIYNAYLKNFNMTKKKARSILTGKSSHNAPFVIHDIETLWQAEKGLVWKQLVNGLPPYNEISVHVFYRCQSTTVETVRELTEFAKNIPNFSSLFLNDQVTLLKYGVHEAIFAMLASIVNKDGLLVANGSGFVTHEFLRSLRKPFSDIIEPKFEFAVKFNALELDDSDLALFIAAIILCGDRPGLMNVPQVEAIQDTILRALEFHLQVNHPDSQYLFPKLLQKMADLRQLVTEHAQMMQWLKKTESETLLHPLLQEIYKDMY

[3] = AUC in cynomolgus monkey at 3 mg/kg, iv; format: ADME, organism-based, Macaca fascicularis; set-up: dose 3 mg/kg; conditions: in vivo
[4] = Mutagenicity in Salmonella typhimurium by mini Ames test; format: toxicity; conditions: salmonella enterica subsp. enterica serovar typhimurium
[5] = AUC in CD-1 mouse at 3 mg/kg, po; format: ADME, organism-based; set-up: dose 3 mg/kg; conditions: in vivo
Mus musculus = test: In vivo modulator activity at PPARdelta in C57BL/6JRccHsd mouse skeletal muscle assessed as increase in Pdk4 gene expression at 30 to 100 mg/kg, po administered for 9 days and measured at 2 hrs after final administration by qPCR analysis; format: functional, organism-based; conditions: dose 30-100 mg/kg, time 9.0 day
[6] = Half life in CD-1 mouse at 1 mg/kg, iv; format: ADME, organism-based; conditions: in vivo
[7] = biological target: T1, Peroxisome proliferator-activated receptor delta (Mus musculus); test: Modulator activity at PPARdelta in […] primary myoblasts derived from DMD patient assessed as upregulation of PDK4 gene expression at 0.04 nM measured after 48 hrs; format: tissue-based; conditions: Primary myotube
[8] = Cmax in CD-1 mouse at 3 mg/kg, po; format: ADME, organism-based; set-up: route oral, dose 3 mg/kg; conditions: in vivo
[9] = Half life in cynomolgus monkey at 3 mg/kg, iv; format: ADME, organism-based, Macaca fascicularis; conditions: in vivo
[10] = Permeability across basolateral to apical side in human Caco2 cells; format: ADME, cell-based; conditions: Caco-2, read-out: permeability
[11] = Permeability across apical to basolateral side in human Caco2 cells; format: ADME, cell-based; conditions: Caco-2, read-out: permeability
CYP2C9 = CYP2C9 (Homo sapiens, UniProt P11712); test: Inhibition of CYP2C9 (unknown origin) at 10 uM relative to control; format: ADME
Chain of CYP2C9 (P11712 whole entry): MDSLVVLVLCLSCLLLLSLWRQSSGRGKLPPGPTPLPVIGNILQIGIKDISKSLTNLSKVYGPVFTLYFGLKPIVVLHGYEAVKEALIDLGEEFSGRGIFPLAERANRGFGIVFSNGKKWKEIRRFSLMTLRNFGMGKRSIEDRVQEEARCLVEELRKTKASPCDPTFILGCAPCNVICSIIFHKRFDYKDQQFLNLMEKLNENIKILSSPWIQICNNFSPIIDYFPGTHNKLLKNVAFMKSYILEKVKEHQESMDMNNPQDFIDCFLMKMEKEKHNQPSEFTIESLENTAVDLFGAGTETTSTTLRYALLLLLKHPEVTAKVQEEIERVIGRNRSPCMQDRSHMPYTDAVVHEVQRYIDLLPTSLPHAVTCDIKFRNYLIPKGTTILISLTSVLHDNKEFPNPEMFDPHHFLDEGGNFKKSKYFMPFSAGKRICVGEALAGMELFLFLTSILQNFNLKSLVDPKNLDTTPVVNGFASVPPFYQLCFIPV

[12] = AUC in CD-1 mouse at 1 mg/kg, iv; format: ADME, organism-based; set-up: dose 1 mg/kg; conditions: in vivo
[13] = Half life in CD-1 mouse at 3 mg/kg, po; format: ADME, organism-based; conditions: in vivo
[14] = biological target: T1, Peroxisome proliferator-activated receptor delta (Mus musculus); test: Modulator activity at PPARdelta in […] primary myoblasts derived from DMD patient assessed as upregulation of ANGPTL4 gene expression at 0.4 nM measured after 48 hrs; format: tissue-based; conditions: Primary myotube, filed as modulator
[15] = biological target: T2, Peroxisome proliferator-activated receptor alpha (Homo sapiens, UniProt Q07869); test: Modulator activity at GAL4-fused human PPARalpha LBD (unknown origin) transfected in African green monkey CV1 cells assessed as receptor transactivation by luciferase reporter gene assay; format: cell-based, CV-1
T2 sequence (Q07869 whole entry): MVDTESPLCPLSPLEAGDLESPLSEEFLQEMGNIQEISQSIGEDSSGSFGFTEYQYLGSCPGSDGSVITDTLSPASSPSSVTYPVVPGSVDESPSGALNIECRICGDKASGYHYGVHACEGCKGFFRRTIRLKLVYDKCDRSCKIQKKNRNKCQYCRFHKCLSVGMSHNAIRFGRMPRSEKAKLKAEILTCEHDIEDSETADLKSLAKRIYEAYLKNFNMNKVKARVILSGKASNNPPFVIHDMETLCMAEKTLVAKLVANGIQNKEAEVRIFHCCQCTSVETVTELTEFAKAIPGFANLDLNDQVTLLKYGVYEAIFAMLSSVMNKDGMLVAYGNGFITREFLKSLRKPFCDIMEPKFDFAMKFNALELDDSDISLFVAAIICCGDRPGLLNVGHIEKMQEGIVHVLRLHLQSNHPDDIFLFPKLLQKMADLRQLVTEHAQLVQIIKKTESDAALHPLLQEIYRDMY

[16] = Oral bioavailability in CD-1 mouse at 3 mg/kg; format: ADME, organism-based; conditions: in vivo
[17] = biological target: T3, Peroxisome proliferator-activated receptor delta (Homo sapiens, UniProt Q03181)
T3 sequence (Q03181 whole entry): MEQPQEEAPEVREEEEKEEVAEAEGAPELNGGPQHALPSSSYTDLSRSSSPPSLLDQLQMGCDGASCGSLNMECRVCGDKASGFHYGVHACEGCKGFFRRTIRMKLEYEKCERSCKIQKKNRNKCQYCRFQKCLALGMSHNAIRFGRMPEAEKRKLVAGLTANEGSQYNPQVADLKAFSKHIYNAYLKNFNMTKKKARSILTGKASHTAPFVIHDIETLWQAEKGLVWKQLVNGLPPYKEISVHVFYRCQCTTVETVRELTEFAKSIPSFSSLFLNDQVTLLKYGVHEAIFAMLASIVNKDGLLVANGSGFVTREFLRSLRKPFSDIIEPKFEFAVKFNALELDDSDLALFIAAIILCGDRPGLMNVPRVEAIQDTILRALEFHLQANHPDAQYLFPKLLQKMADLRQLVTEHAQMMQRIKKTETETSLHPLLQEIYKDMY
Description: Modulator activity at GAL4-fused human PPARdelta LBD (128 to residue at C-terminus) transfected in African green monkey CV1 cells assessed as receptor transactivation by luciferase reporter gene assay

[18] = Clearance in Wistar rat at 1 mg/kg, iv; format: ADME, organism-based; conditions: in vivo
[19] = AUC in Wistar rat at 3 mg/kg, po; format: ADME, organism-based; set-up: dose 3 mg/kg; conditions: in vivo
[20] = Oral bioavailability in cynomolgus monkey at 10 mg/kg; format: ADME, organism-based, Macaca fascicularis; conditions: in vivo
[21] = Clearance in CD-1 mouse at 3 mg/kg, iv; format: ADME, organism-based; conditions: in vivo
[22] = Protein binding in mouse plasma; format: ADME, cell-free; conditions: read-out: PPB (converted)
[23] = biological target: T1, Peroxisome proliferator-activated receptor delta (Mus musculus); test: Modulator activity at PPARdelta in […] primary myoblasts derived from DMD patient assessed as upregulation of PDK4 gene expression at 0.4 nM measured after 48 hrs; format: tissue-based; conditions: Primary myotube, filed as modulator
[24] = Half life in cynomolgus monkey at 10 mg/kg, po; format: ADME, organism-based, Macaca fascicularis; conditions: in vivo
[25] = AUC in CD-1 mouse at 3 mg/kg, iv; format: ADME, organism-based; set-up: dose 3 mg/kg; conditions: in vivo
[26] = Oral bioavailability in Wistar rat at 3 mg/kg; format: ADME, organism-based; conditions: in vivo

## Cc1cnc(-c2ccc(OC(F)(F)F)cc2)n1Cc1ccccc1OCCC[C@@H](C)CC(=O)O
[1]
  Cmax: 1660 ng/mL
[2]
  Activity: 36%
[3]
  AUC: 8400 ng·h/mL
[4]
  Activity: Non-Toxic
[5]
  AUC: 630 ng·h/mL
Mus musculus
  Activity: Active
[6]
  half-life: 2.7 h
[7]
  Activity: 32%
[8]
  Cmax: 510 ng/mL
[9]
  t1/2: 6.1 h
[10]
  Papp B→A: 41 ×10⁻⁶ cm/s
[11]
  Papp A→B: 36 ×10⁻⁶ cm/s
CYP2C9
  inhibition at 10 µM: 56%
[12]
  AUC: 503 ng·h/mL
[13]
  half-life: 3.4 h
[14]
  Activity: 98%
[15]
  EC50: 6.9 µM
[16]
  bioavailability: 42%
[17]
  EC50: 0.0004 µM
[18]
  clearance: 10 mL/min/kg
[19]
  AUC: 4920 ng·h/mL
[20]
  bioavailability: 13%
[21]
  clearance: 25 mL/min/kg
[22]
  fraction unbound: 0.005
[23]
  Activity: 98%
[24]
  half-life: 7.3 h
[25]
  AUC: 1250 ng·h/mL
[26]
  bioavailability: 90%
